Source: PubChem BioAssay (NCI)
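Grown in 96-well plates, cells were treated for 48 hours with each compound at five concentrations. Insufficient inhibition: endpoint recorded as highest concentration tested. GI50 is the concentration that inhibits growth by half. TGI: concentration producing complete growth inhibition.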

Assays:
Assay in all cases: DTP human tumour cell line panel, 48 h
MDA-MB-435 = tested on: MDA-MB-435
UACC-62 melanoma = tested on: UACC-62 melanoma
HCT-116 colon = tested on: HCT-116 colon
PC-3 prostate = tested on: PC-3 prostate
NCI-H522 lung = tested on: NCI-H522 lung
SF-268 CNS = tested on: SF-268 CNS
OVCAR-4 ovarian = tested on: OVCAR-4 ovarian
MOLT-4 leukemia = tested on: MOLT-4 leukemia
T-47D breast = tested on: T-47D breast
SW-620 colon = tested on: SW-620 colon
SR leukemia = tested on: SR leukemia
CCRF-CEM leukemia = tested on: CCRF-CEM leukemia
UO-31 renal = tested on: UO-31 renal
HOP-62 NSCLC = tested on: HOP-62 NSCLC
NCI-H460 lung = tested on: NCI-H460 lung
786-0 renal = tested on: 786-0 renal
ACHN renal = tested on: ACHN renal
HS 578T breast = tested on: HS 578T breast
SN12C renal = tested on: SN12C renal
SK-OV-3 ovarian = tested on: SK-OV-3 ovarian
COLO 205 colon = tested on: COLO 205 colon
HT29 colon = tested on: HT29 colon
RXF 393 renal = tested on: RXF 393 renal
TK-10 renal = tested on: TK-10 renal
K-562 leukemia = tested on: K-562 leukemia
UACC-257 melanoma = tested on: UACC-257 melanoma
SNB-75 CNS = tested on: SNB-75 CNS
BT-549 breast = tested on: BT-549 breast
MALME-3M melanoma = tested on: MALME-3M melanoma
RPMI-8226 leukemia = tested on: RPMI-8226 leukemia
OVCAR-8 ovarian = tested on: OVCAR-8 ovarian
SF-295 CNS = tested on: SF-295 CNS
SK-MEL-28 melanoma = tested on: SK-MEL-28 melanoma
NCI-H226 lung = tested on: NCI-H226 lung
A549 NSCLC = tested on: A549 NSCLC
MCF7 breast = tested on: MCF7 breast
KM12 colon = tested on: KM12 colon
IGROV1 ovarian = tested on: IGROV1 ovarian
HCT-15 colon = tested on: HCT-15 colon
A498 renal = tested on: A498 renal
HCC-2998 colon = tested on: HCC-2998 colon
CAKI-1 renal = tested on: CAKI-1 renal
NCI/ADR-RES ovarian = tested on: NCI/ADR-RES ovarian
SF-539 CNS = tested on: SF-539 CNS
U251 CNS = tested on: U251 CNS
NCI-H23 lung = tested on: NCI-H23 lung
SK-MEL-2 melanoma = tested on: SK-MEL-2 melanoma
SK-MEL-5 melanoma = tested on: SK-MEL-5 melanoma
HOP-92 NSCLC = tested on: HOP-92 NSCLC
MDA-MB-231 breast = tested on: MDA-MB-231 breast
HL-60(TB) leukemia = tested on: HL-60(TB) leukemia
OVCAR-5 ovarian = tested on: OVCAR-5 ovarian
OVCAR-3 ovarian = tested on: OVCAR-3 ovarian
EKVX NSCLC = tested on: EKVX NSCLC
DU-145 prostate = tested on: DU-145 prostate
M14 melanoma = tested on: M14 melanoma
SNB-19 CNS = tested on: SNB-19 CNS
LOX IMVI melanoma = tested on: LOX IMVI melanoma

## N#Cc1c(-c2ccc(Cl)cc2)cc(-c2cc(O)ccc2O)nc1N
MDA-MB-435
  GI50: 686 nM
  TGI: 2740 nM
UACC-62 melanoma
  GI50: 1450 nM
  TGI: 3.99 µM
HCT-116 colon
  GI50: 553 nM
  TGI: > 34 µM
PC-3 prostate
  GI50: 1480 nM
  TGI: > 33.9 µM
NCI-H522 lung
  GI50: 606 nM
  TGI: 2720 nM
SF-268 CNS
  GI50: 825 nM
  TGI: 7.15 µM
OVCAR-4 ovarian
  GI50: 576 nM
  TGI: 2200 nM
MOLT-4 leukemia
  GI50: 666 nM
  TGI: 5.02 µM
T-47D breast
  GI50: 854 nM
  TGI: 5.64 µM
SW-620 colon
  GI50: 773 nM
  TGI: 4.68 µM
SR leukemia
  GI50: 605 nM
  TGI: > 100 µM
CCRF-CEM leukemia
  GI50: 1230 nM
  TGI: > 100 µM
UO-31 renal
  GI50: 5.12 µM
  TGI: 23.6 µM
HOP-62 NSCLC
  GI50: 908 nM
  TGI: 3.5 µM
NCI-H460 lung
  GI50: 935 nM
  TGI: 4.87 µM
786-0 renal
  GI50: 2060 nM
  TGI: 6.49 µM
ACHN renal
  GI50: 1890 nM
  TGI: 12.2 µM
HS 578T breast
  GI50: 1730 nM
  TGI: > 100 µM
SN12C renal
  GI50: 1170 nM
  TGI: 5.63 µM
SK-OV-3 ovarian
  GI50: 2420 nM
  TGI: 6.34 µM
COLO 205 colon
  GI50: 22.4 µM
  TGI: > 100 µM
HT29 colon
  GI50: 11.7 µM
  TGI: > 53.3 µM
RXF 393 renal
  GI50: 835 nM
  TGI: 2720 nM
TK-10 renal
  GI50: 4.08 µM
  TGI: 32.8 µM
K-562 leukemia
  GI50: 402 nM
  TGI: > 100 µM
UACC-257 melanoma
  GI50: 1830 nM
  TGI: 7.44 µM
SNB-75 CNS
  GI50: 914 nM
  TGI: 4.04 µM
BT-549 breast
  GI50: 3.41 µM
  TGI: 31.2 µM
MALME-3M melanoma
  GI50: 1540 nM
  TGI: 4.27 µM
RPMI-8226 leukemia
  GI50: 3.2 µM
  TGI: > 100 µM
OVCAR-8 ovarian
  GI50: 1370 nM
  TGI: 4.93 µM
SF-295 CNS
  GI50: 2940 nM
  TGI: 9.77 µM
SK-MEL-28 melanoma
  GI50: 1760 nM
  TGI: 4.23 µM
NCI-H226 lung
  GI50: 2540 nM
  TGI: 9.87 µM
A549 NSCLC
  GI50: 2330 nM
  TGI: 13.8 µM
MCF7 breast
  GI50: 566 nM
  TGI: > 32.8 µM
KM12 colon
  GI50: 2000 nM
  TGI: 14.9 µM
IGROV1 ovarian
  GI50: 1240 nM
  TGI: 4.77 µM
HCT-15 colon
  GI50: 4.74 µM
  TGI: > 52.8 µM
A498 renal
  GI50: 1410 nM
  TGI: 6.14 µM
HCC-2998 colon
  GI50: 1170 nM
  TGI: 3.46 µM
CAKI-1 renal
  GI50: 2980 nM
  TGI: 19.1 µM
NCI/ADR-RES ovarian
  GI50: 8.8 µM
  TGI: > 100 µM
SF-539 CNS
  GI50: 981 nM
  TGI: 3.29 µM
U251 CNS
  GI50: 669 nM
  TGI: 2410 nM
NCI-H23 lung
  GI50: 1220 nM
  TGI: 5.28 µM
SK-MEL-2 melanoma
  GI50: 2600 nM
  TGI: 9.16 µM
SK-MEL-5 melanoma
  GI50: 853 nM
  TGI: 2400 nM
HOP-92 NSCLC
  GI50: 2390 nM
  TGI: 10.8 µM
MDA-MB-231 breast
  GI50: 1250 nM
  TGI: 5.09 µM
HL-60(TB) leukemia
  GI50: 7.64 µM
  TGI: > 87.9 µM
OVCAR-5 ovarian
  GI50: 5.07 µM
  TGI: 25.7 µM
OVCAR-3 ovarian
  GI50: 472 nM
  TGI: 1510 nM
EKVX NSCLC
  GI50: 2770 nM
  TGI: > 62.9 µM
DU-145 prostate
  GI50: 1250 nM
  TGI: 10.5 µM
M14 melanoma
  GI50: 1230 nM
  TGI: 5.63 µM
SNB-19 CNS
  GI50: 1290 nM
  TGI: > 45.3 µM
LOX IMVI melanoma
  GI50: 558 nM
  TGI: 1890 nM
